Measured values: the supplement of paper PMC5908809

Key:
Assay in all cases: relative IC50 (inflection point of fitted viability curve, relative to fitted max inhibition); higher = less sensitive
Conditions in all cases: 72 h
KAI3 (IL-2 2.5 ng/mL) = tested on: KAI3 (IL-2 2.5 ng/mL)
Description: (§1)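 Drug sensitivity and resistance testing: 5 concentrations over a 10,000-fold range, 72 h at 37 °C, viability by CellTiter-Glo normalised to DMSO and benzethonium chloride controls. IC50 is the inflection point of a logistic fit (min fixed at 0, max fitted), so it is relative to the fitted maximal inhibition. Kept only where fitted max inhibition is at least 50%.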

SNK-6 (IL-2 2.5 ng/mL) = tested on: SNK-6 (IL-2 2.5 ng/mL)
Description: as §1

DERL-7 (IL-2 2.5 ng/mL) = tested on: DERL-7 (IL-2 2.5 ng/mL)
Description: as §1

NK-92 (IL-2 2.5 ng/mL) = tested on: NK-92 (IL-2 2.5 ng/mL)
Description: as §1

Compound | relative IC50 (KAI3 (IL-2 2.5 ng/mL)) [nM] | relative IC50 (SNK-6 (IL-2 2.5 ng/mL)) [nM] | relative IC50 (DERL-7 (IL-2 2.5 ng/mL)) [nM] | relative IC50 (NK-92 (IL-2 2.5 ng/mL)) [nM]
Nc1nccc(-c2c(-c3ccc(F)cc3)ncn2C2CCCCC2)n1 | 39.1 | 2170 |  | 
CC[C@H](Nc1ncnc2[nH]cnc12)c1nc2cccc(F)c2c(=O)n1-c1ccccc1 [Idelalisib] |  | 891 | 675 | 31.7
